# Biological target: Tie-2 (Homo sapiens, UniProt Q02763)
# Assay: Tie-2 tyrosine kinase activity assay (luciferase/luciferin ATP consumption with pEY substrate, or 33P-ATP incorporation)
# Assay type: biochemical
# Conditions: human enzyme Tie-2
# Method: One measure of inhibition is Ki. […] The Ki for a compound is determined from the IC50 based on three assumptions. First, only one compound molecule binds to the enzyme and there is no cooperativity. […] Third, the enzymatic rate of the enzyme-inhibitor complex is zero. The rate data (i.e. compound concentration) are fitted to the equation:
# [formula] where V is the observed rate, Vmax, is the rate of the free enzyme, I0 is the inhibitor concentration, E0 is the enzyme concentration, and Kd is the dissociation constant of the enzyme-inhibitor complex.
# Tyrosine kinase activity is determined by 1) measurement of kinase-dependent ATP consumption by in the presence of a generic substrate such as […], tyrosine (pEY), by luciferase/luciferin-mediated chemiluminescence or; 2) incorporation of radioactive phosphate derived from ^33P-ATP into a generic substrate which has been adsorbed onto the well surface of polystyrene microtiter plates. Phosphorylated substrate products are quantified by scintillation spectrometry.
# Inhibition is indicated as IC50 with following key: A=IC50 less than 50 nM, B=IC50 greater than 50 nM, but less than or equal to 1000 nM, C=IC50 greater than 1000 nM, but less than 10,000 nM, D=IC50 10,000 nM or greater, and “-”=no data available. The abbreviation for human enzyme, Tie-2, is defined as tyrosine kinase with immunoglobulin and EGF repeats.
# Tie-2, sequence (Q02763 23-1124): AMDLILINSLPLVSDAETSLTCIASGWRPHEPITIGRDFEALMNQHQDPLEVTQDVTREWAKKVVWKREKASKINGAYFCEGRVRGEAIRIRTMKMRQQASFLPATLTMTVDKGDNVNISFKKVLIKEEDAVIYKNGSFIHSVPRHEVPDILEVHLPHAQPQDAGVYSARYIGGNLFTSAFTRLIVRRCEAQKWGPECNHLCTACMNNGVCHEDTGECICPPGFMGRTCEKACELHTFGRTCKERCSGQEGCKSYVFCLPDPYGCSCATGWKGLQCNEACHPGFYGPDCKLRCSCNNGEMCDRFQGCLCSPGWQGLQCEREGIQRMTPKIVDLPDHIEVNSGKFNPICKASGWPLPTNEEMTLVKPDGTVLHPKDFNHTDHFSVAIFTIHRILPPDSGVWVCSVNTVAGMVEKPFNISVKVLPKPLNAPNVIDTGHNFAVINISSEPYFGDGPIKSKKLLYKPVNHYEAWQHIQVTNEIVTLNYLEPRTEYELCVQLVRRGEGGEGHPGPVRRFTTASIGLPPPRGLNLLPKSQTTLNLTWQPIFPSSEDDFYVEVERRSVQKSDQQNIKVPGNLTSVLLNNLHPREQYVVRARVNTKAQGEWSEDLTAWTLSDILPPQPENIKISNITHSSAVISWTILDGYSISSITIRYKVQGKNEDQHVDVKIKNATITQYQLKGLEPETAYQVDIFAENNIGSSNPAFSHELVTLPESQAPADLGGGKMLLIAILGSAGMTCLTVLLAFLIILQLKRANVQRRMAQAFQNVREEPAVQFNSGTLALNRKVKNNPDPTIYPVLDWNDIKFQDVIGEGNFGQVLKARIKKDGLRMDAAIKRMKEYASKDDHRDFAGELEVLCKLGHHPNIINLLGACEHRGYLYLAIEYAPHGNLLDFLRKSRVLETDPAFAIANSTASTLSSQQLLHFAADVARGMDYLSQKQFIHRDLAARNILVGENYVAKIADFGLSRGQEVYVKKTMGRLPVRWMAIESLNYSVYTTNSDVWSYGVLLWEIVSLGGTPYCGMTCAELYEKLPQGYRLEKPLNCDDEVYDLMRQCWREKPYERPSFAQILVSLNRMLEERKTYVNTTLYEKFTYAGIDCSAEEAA
row,SMILES,IC50 [nM]
1,O=C(Nc1cc(C(F)(F)F)cc(C(F)(F)F)c1)N1CCN(c2nsnc2OCc2ccncc2)CC1 [Example 2],< 50
2,O=C(Nc1cccc(Br)c1)N1CCN(c2nsnc2OCc2ccncc2)CC1 [Example 5],1000 to 10000
3,CCc1cccc(NC(=O)N2CCN(c3nsnc3OCc3ccncc3)CC2)c1 [Example 7],50 to 1000
4,Cc1cc(C)cc(NC(=O)N2CCN(c3nsnc3OCc3ccncc3)CC2)c1 [Example 8],50 to 1000
5,O=C(Nc1cccc(C(F)(F)F)c1)N1CCN(c2nsnc2OCc2ccncc2)CC1 [Example 9],50 to 1000
6,Cc1cc(COc2nsnc2N2CCN(C(=O)Nc3cc(C(F)(F)F)cc(C(F)(F)F)c3)CC2)c2ccccc2n1 [Example 10],≥ 10000
7,"CN(C)c1cccc(COc2nsnc2N2CCN(C(=O)Nc3cc(C(F)(F)F)cc(C(F)(F)F)c3)CC2)c1 [Example 11, N-[3,5-bis(trifluoromethyl)phenyl]-4-[4-({[3-(dimethylamino)phenyl]methyl}oxy)-1,2,5-thiadiazol-3-yl]piperazine-1-carboxamide]",≥ 10000
8,O=C(Nc1cc(C(F)(F)F)cc(C(F)(F)F)c1)N1CCN(c2nsnc2Oc2ccc3[nH]ccc3c2)CC1 [Example 12],50 to 1000
9,O=C(Nc1cc(C(F)(F)F)cc(C(F)(F)F)c1)N1CCN(c2nsnc2OCc2ccsc2)CC1 [Example 13],≥ 10000
10,O=C(Nc1cc(C(F)(F)F)cc(C(F)(F)F)c1)N1CCN(c2nsnc2OCCN2CCOCC2)CC1 [Example 14],≥ 10000
11,COc1ccc(COc2nsnc2N2CCN(C(=O)Nc3cc(C(F)(F)F)cc(C(F)(F)F)c3)CC2)cc1 [Example 17],≥ 10000
12,O=C(Nc1cc(C(F)(F)F)cc(C(F)(F)F)c1)N1CCN(c2nsnc2OCc2ccoc2)CC1 [Example 20],≥ 10000
13,CC1CN(c2nsnc2OCc2ccncc2)CCN1C(=O)Nc1cc(C(F)(F)F)cc(C(F)(F)F)c1 (stereo not drawn) [Example 22],50 to 1000
14,O=C(Nc1cc(C(F)(F)F)cc(C(F)(F)F)c1)N1CCCN(c2nsnc2OCc2ccncc2)CC1 [Example 23],50 to 1000
15,CC(C)[C@H]1CC[C@H](C)C[C@@H]1OCC(=O)N1CCN(c2nsnc2OCc2ccncc2)CC1 [Example 24],1000 to 10000
16,O=C(NCC1CCN(c2nsnc2OCc2ccncc2)CC1)Nc1cc(C(F)(F)F)cc(C(F)(F)F)c1 [Example 28],50 to 1000
17,"O=C(Nc1cc(C(F)(F)F)cc(C(F)(F)F)c1)N1CCN(c2nsnc2OCCCc2cccnc2)CC1 [Example 29, N-[3,5-bis(trifluoromethyl)phenyl]-4-{4-[(3-pyridin-3-ylpropyl)oxy]-1,2,5-thiadiazol-3-yl}piperazine-1-carboxamide]",1000 to 10000
18,"O=C(O)c1ccc(COc2nsnc2N2CCN(C(=O)Nc3cc(C(F)(F)F)cc(C(F)(F)F)c3)CC2)cc1 [Example 32, 4-[({4-[4-({[3,5-bis(trifluoromethyl)phenyl]amino}carbonyl)piperazin-1-yl]-1,2,5-thiadiazol-3-yl}oxy)methyl]benzoic acid]",1000 to 10000
19,"O=C(Nc1cc(C(F)(F)F)cc(C(F)(F)F)c1)C1CCN(c2nsnc2OCc2ccncc2)CC1 [Example 36, N-[3,5-bis(trifluoromethyl)phenyl]-1-{4-[(pyridin-4-ylmethyl)oxy]-1,2,5-thiadiazol-3-yl}piperidine-4-carboxamide]",50 to 1000
20,"O=C(Nc1cccc(C(F)(F)F)c1)C1CCN(c2nsnc2OCc2ccncc2)CC1 [Example 37, 1-{4-[(pyridin-4-ylmethyl)oxy]-1,2,5-thiadiazol-3-yl}-N-[3-(trifluoromethyl)phenyl]piperidine-4-carboxamide]",50 to 1000

row,SMILES,IC50 [nM]
1,"O=C(Nc1cc(C(F)(F)F)cc(C(F)(F)F)c1)N1CCN(c2nccnc2OCc2ccncc2)CC1 [Example 38, N-[3,5-bis(trifluoromethyl)phenyl]-4-{3-[(pyridin-4-ylmethyl)oxy]pyrazin-2-yl}piperazine-1-carboxamide]",< 50
2,"O=C(Nc1cccc(C(F)(F)F)c1)N1CCN(c2nccnc2OCc2ccncc2)CC1 [Example 39, 4-{3-[(pyridin-4-ylmethyl)oxy]pyrazin-2-yl}-N-[3-(trifluoromethyl)phenyl]piperazine-1-carboxamide]",< 50
3,"CC1CN(c2nsnc2OCc2ccncc2)CCN1C(=O)Nc1cccc(C(F)(F)F)c1 (stereo not drawn) [Example 41, 2-methyl-4-{4-[(pyridin-4-ylmethyl)oxy]-1,2,5-thiadiazol-3-yl}-N-[3-(trifluoromethyl)phenyl]piperazine-1-carboxamide]",50 to 1000
4,"O=C(Nc1cc(C(F)(F)F)cc(C(F)(F)F)c1)N1CCN(c2nsnc2NCc2ccncc2)CC1 [Example 44, N-[3,5-bis(trifluoromethyl)phenyl]-4-{4-[(pyridin-4-ylmethyl)amino]-1,2,5-thiadiazol-3-yl}piperazine-1-carboxamide]",1000 to 10000
5,"O=C(Nc1cccc(C(F)(F)F)c1)N1CCCN(c2nsnc2OCc2ccncc2)CC1 [Example 45, 4-{4-[(pyridin-4-ylmethyl)oxy]-1,2,5-thiadiazol-3-yl}-N-[3-(trifluoromethyl)phenyl]-1,4-diazepane-1-carboxamide]",1000 to 10000
6,"O=C(Nc1cccc(C(F)(F)F)c1)NC1CCN(c2nsnc2OCc2ccncc2)C1 (stereo not drawn) [Example 49, N-(1-{4-[(pyridin-4-ylmethyl)oxy]-1,2,5-thiadiazol-3-yl}pyrrolidin-3-yl)-N′-[3-(trifluoromethyl)phenyl]urea]",1000 to 10000
7,"CC(C)c1ccc(NC(=O)N2CCN(c3nsnc3OCc3ccncc3)CC2C)cc1 (stereo not drawn) [Example 50, 2-methyl-N-[4-(1-methylethyl)phenyl]-4-{4-[(pyridin-4-ylmethyl)oxy]-1,2,5-thiadiazol-3-yl}piperazine-1-carboxamide]",1000 to 10000
8,"CSc1cccc(NC(=O)N2CCN(c3nsnc3OCc3ccncc3)CC2C)c1 (stereo not drawn) [Example 51, 2-methyl-N-[3-(methylthio)phenyl]-4-{4-[(pyridin-4-ylmethyl)oxy]-1,2,5-thiadiazol-3-yl}piperazine-1-carboxamide]",50 to 1000
9,"C[C@@H]1CN(c2nsnc2OCc2ccncc2)CCN1C(=O)Nc1cc(C(F)(F)F)cc(C(F)(F)F)c1 [Example 52, (2R)-N-[3,5-bis(trifluoromethyl)phenyl]-2-methyl-4-{4-[(pyridin-4-ylmethyl)oxy]-1,2,5-thiadiazol-3-yl}piperazine-1-carboxamide]",50 to 1000
10,"C[C@@H]1CN(c2nsnc2OCc2ccncc2)CCN1C(=O)Nc1cccc(C(F)(F)F)c1 [Example 53, (2R)-2-methyl-4-{4-[(pyridin-4-ylmethyl)oxy]-1,2,5-thiadiazol-3-yl}-N-[3-(trifluoromethyl)phenyl]piperazine-1-carboxamide]",50 to 1000
11,"C[C@H]1CN(c2nsnc2OCc2ccncc2)CCN1C(=O)Nc1cc(C(F)(F)F)cc(C(F)(F)F)c1 [Example 57, (2S)-N-[3,5-bis(trifluoromethyl)phenyl]-2-methyl-4-{4-[(pyridin-4-ylmethyl)oxy]-1,2,5-thiadiazol-3-yl}piperazine-1-carboxamide]",50 to 1000
12,"C[C@H]1CN(c2nsnc2OCc2ccncc2)CCN1C(=O)Nc1cccc(C(F)(F)F)c1 [Example 58, (2S)-2-methyl-4-{4-[(pyridin-4-ylmethyl)oxy]-1,2,5-thiadiazol-3-yl}-N-[3-(trifluoromethyl)phenyl]piperazine-1-carboxamide]",50 to 1000
13,"O=C(Cc1cc(C(F)(F)F)ccc1C(F)(F)F)NC1CCN(c2nsnc2OCc2ccncc2)C1 (stereo not drawn) [Example 60, 2-[2,5-bis(trifluoromethyl)phenyl]-N-(1-{4-[(pyridin-4-ylmethyl)oxy]-1,2,5-thiadiazol-3-yl}pyrrolidin-3-yl)acetamide]",50 to 1000
14,"CC1CN(c2nsnc2OCc2ccncc2)CCN1C(=O)Cc1cc(C(F)(F)F)ccc1C(F)(F)F (stereo not drawn) [Example 61, 1-{[2,5-bis(trifluoromethyl)phenyl]acetyl}-2-methyl-4-{4-[(pyridin-4-ylmethyl)oxy]-1,2,5-thiadiazol-3-yl}piperazine]",50 to 1000
15,"CC1CN(c2nccnc2OCc2ccncc2)CCN1C(=O)Nc1cc(C(F)(F)F)cc(C(F)(F)F)c1 (stereo not drawn) [Example 62, N-[3,5-bis(trifluoromethyl)phenyl]-2-methyl-4-{3-[(pyridin-4-ylmethyl)oxy]pyrazin-2-yl}piperazine-1-carboxamide]",< 50
16,"CC1CN(c2nccnc2OCc2ccncc2)CCN1C(=O)Nc1cccc(C(F)(F)F)c1 (stereo not drawn) [Example 63, 2-methyl-4-{3-[(pyridin-4-ylmethyl)oxy]pyrazin-2-yl}-N-[3-(trifluoromethyl)phenyl]piperazine-1-carboxamide]",50 to 1000
17,"CC1CN(c2nccnc2OCc2ccncc2)CC(C)N1C(=O)Nc1cc(C(F)(F)F)cc(C(F)(F)F)c1 (stereo not drawn) [Example 64, N-[3,5-bis(trifluoromethyl)phenyl]-2,6-dimethyl-4-{3-[(pyridin-4-ylmethyl)oxy]pyrazin-2-yl}piperazine-1-carboxamide]",50 to 1000
18,"CC1CN(c2nccnc2OCc2ccncc2)CC(C)N1C(=O)Nc1cccc(C(F)(F)F)c1 (stereo not drawn) [Example 65, 2,6-dimethyl-4-{3-[(pyridin-4-ylmethyl)oxy]pyrazin-2-yl}-N-[3-(trifluoromethyl)phenyl]piperazine-1-carboxamide]",50 to 1000
19,"O=C(Nc1cccc(C(F)(F)F)c1)NC1CCN(c2nccnc2OCc2ccncc2)C1 (stereo not drawn) [Example 66, N-(1-{3-[(pyridin-4-ylmethyl)oxy]pyrazin-2-yl}pyrrolidin-3-yl)-N′-[3-(trifluoromethyl)phenyl]urea]",50 to 1000

# Reference: patent publication US8013156B2 (Exelixis, Inc., priority 2003, dated 2011)
